Test results reported in patent US5849695A, “Parathyroid hormone analogues useful for treatment of osteoporosis and disorders of calcium meatabolism in mammals” (The Regents of the University of California, priority 1993, dated 1998).

Key:
[1] = test system: PTH receptors
[2] = target: T1, PTH receptor (Homo sapiens, UniProt Q03431); format: cell-based; design: In intact rat (UMR-106) and human (SaOS-2) bone cell lines; endogenous in cells; host or cells: SaOS-2 human bone (osteosarcoma) cells
T1 sequence (Q03431 27-593): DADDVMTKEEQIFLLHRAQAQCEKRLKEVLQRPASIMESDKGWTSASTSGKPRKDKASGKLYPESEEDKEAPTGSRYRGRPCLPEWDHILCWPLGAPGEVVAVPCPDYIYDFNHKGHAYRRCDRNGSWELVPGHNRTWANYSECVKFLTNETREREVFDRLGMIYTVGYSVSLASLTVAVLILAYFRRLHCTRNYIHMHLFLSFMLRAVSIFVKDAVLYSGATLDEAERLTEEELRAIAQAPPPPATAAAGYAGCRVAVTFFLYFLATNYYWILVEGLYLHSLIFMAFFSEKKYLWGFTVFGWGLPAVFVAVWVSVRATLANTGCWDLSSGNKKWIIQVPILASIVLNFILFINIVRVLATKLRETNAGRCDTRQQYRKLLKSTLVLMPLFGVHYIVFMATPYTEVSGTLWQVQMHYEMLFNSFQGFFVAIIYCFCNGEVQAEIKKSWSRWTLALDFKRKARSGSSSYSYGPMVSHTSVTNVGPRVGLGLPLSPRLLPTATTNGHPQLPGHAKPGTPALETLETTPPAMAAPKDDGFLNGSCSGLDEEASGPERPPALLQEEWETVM
Text: The renal membrane assay values listed reflect the effect of the polypeptide analogue with kidney tissue receptors. The UMR-106-H5 assay values reflect the effect of the peptide analogue with rat bone tissue receptors. The Sa05-2 assay values reflect the effect of the peptides for human bone tissue receptors.

[3] = test system: PTH receptor
[4] = target: T2, PTH receptor (Canis lupus familiaris, UniProt Q9TU31); format: binding, canine
T2 construct: canine renal plasma membranes; from tissue; host or cells: canine kidney (renal plasma membranes)
T2 sequence (Q9TU31 29-595): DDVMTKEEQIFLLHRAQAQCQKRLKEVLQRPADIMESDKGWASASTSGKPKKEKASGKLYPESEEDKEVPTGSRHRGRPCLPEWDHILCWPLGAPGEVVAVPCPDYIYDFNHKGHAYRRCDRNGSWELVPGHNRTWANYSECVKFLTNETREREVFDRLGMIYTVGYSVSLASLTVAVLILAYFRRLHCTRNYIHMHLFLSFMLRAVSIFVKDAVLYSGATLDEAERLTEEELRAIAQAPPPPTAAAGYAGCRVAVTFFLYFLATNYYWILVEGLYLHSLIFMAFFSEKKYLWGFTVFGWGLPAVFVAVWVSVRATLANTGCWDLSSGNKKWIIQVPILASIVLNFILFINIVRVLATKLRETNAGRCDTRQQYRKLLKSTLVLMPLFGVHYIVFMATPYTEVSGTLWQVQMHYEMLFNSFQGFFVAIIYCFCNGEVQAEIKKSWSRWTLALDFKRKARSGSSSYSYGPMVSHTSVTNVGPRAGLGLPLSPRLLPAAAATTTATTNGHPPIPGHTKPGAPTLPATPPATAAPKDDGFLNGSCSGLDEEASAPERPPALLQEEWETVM
Method: (§1) Receptor binding assays were carried out in canine renal plasma membranes and in UMR 106-H5 rat osteosarcoma cells as previously described in detail (Ref. 14,32), using ^125 I-labeled PTH(1-34)amide as the radioligand. Binding potency (IC50) was quantified as the concentration of unlabeled peptide required for half-maximal displacement of the radioligand. […] Adenylate cyclase activity was assessed in canine renal membranes by the conversion of [α-32p ] ATP to [^32 P] cyclic AMP, essentially as described, except for the addition of 100 micromolar GTP (Ref. 33,34). Adenylate cyclase activity in UMR 106-H5 cells was assessed essentially as described (Ref. 35). In brief, cells were incubated with [3H]adenine 1 micro Ci/ml of serum-free MEM for two hours at 37° C. to label the endogenous ATP pool. Cells were then exposed to 0.4 mM IBMX for 10 min, followed by the appropriate peptide for an additional 10 min at ambient temperature. The cells are then scraped in 20% TCA, and [3H]cyclic AMP is isolated by the column procedure of Salomon et al. (Ref. 36). Potency in the adenylate cyclase assays (Ka) is the concentration of peptide producing half-maximal enzyme activation.

[5] = target: T1, PTH receptor
[6] = target: T2, PTH receptor; format: biochemical, canine
Method: as §1

[7] = target: T3, PTH receptor (Rattus norvegicus, UniProt P25961); format: binding
T3 construct: endogenous in cells; host or cells: UMR 106-H5 rat osteosarcoma cells
T3 sequence (P25961 27-591): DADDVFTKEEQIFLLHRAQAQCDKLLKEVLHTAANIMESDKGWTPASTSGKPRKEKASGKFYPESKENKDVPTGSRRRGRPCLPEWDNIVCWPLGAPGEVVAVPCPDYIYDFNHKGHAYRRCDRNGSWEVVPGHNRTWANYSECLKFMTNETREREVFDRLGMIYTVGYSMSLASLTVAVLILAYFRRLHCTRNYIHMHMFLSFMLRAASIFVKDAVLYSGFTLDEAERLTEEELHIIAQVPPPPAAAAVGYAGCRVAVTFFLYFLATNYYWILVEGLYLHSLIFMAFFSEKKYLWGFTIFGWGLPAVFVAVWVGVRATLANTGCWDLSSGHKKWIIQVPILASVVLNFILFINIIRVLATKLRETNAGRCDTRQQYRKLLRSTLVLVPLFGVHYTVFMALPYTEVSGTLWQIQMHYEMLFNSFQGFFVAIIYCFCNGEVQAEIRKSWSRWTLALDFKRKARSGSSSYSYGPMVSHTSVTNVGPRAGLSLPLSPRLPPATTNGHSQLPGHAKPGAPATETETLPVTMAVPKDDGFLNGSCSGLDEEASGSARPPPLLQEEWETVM
Method: as §1

[8] = target: T3, PTH receptor; format: cell-based
Method: as §1, with “Assays were conducted using […] cells. These assays were performed as described in Cohen et al. (1991), J. Biological Chem., 266(3), 1997 and in the Experimental section, e.g. Example 11. Receptor” for “Receptor”

[9] = target: T1, PTH receptor; remark: listed apart in the source
[10] = aqueous conditions in the absence of amphiphiles (Ref. 37-39); cited from earlier work
[11] = Table 5A, intact cells, hPTH(1-34) = 100

CC[C@H](C)[C@H](NC(=O)[C@H](CCC(=O)O)NC(=O)[C@H](CC(C)C)NC(=O)[C@@H](NC(=O)[C@@H](N)CO)C(C)C)C(=O)N[C@@H](CCC(N)=O)C(=O)N[C@@H](CC(C)C)C(=O)N[C@@H](CCSC)C(=O)N[C@@H](Cc1c[nH]cn1)C(=O)N[C@@H](CC(N)=O)C(=O)N[C@@H](CC(C)C)C(=O)NCC(=O)N[C@@H](CCCCN)C(=O)N[C@@H](Cc1c[nH]cn1)C(=O)N[C@@H](CC(C)C)C(=O)N[C@@H](CC(N)=O)C(=O)N[C@@H](CO)C(=O)N[C@@H](CCSC)C(=O)N[C@@H](CCC(=O)O)C(=O)N[C@@H](CCCNC(=N)N)C(=O)N[C@H](C(=O)N[C@@H](CCC(=O)O)C(=O)N[C@@H](Cc1c[nH]c2ccccc12)C(=O)N[C@@H](CC(C)C)C(=O)N[C@@H](CCCNC(=N)N)C(=O)N[C@@H](CCCCN)C(=O)N[C@@H](CCCCN)C(=O)N[C@@H](CC(C)C)C(=O)N[C@@H](CCC(N)=O)C(=O)N[C@@H](CC(=O)O)C(=O)N[C@H](C(=O)N[C@@H](Cc1c[nH]cn1)C(=O)N[C@@H](CC(N)=O)C(=O)N[C@@H](Cc1ccccc1)C(=O)O)C(C)C)C(C)C [[leu^3]hPTH(1-34), [leu^3] HPTH(1-34)]
KIDNEY CELLS (CK) Potency (B) [1]: 22%
potency of native [ser^3]HPTH(1-34) retained in binding to PTH receptors [1]: 5-15%
BONE CELLS Human(SaOS-2) Potency (AC) [2]: 11%
BONE CELLS Human(SaOS-2) Activity (AC) [2, 11]: 86%
KIDNEY CELLS (CK) Potency (AC) [3]: 16%
RENAL MEMBRANES Canine Potency (B) [4]: 7%
BONE CELL MEMBRANES Human SaOS-2 Potency (AC) [5]: 8%
BONE CELL MEMBRANES Human SaOS-2 Activity (AC) ([5]; Table 5B, hPTH(1-34) = 100): 14%
RENAL MEMBRANES Canine Potency (AC) [6]: 1%
RENAL MEMBRANES Canine Activity (AC) ([6]; Table 5B, hPTH(1-34) = 100): 47%
BONE CELLS Rat(UMR-106) Potency (B) [7]: 6%
BONE CELLS Rat(UMR-106) Potency (AC) [8]: 13%
BONE CELLS Rat(UMR-106) Activity (AC) [8, 11]: 100%
RENAL MEMBRANES Human Potency (AC) [9]: 3%
RENAL MEMBRANES Human Activity (AC) ([9]; Table 5B, hPTH(1-34) = 100): 35%

bPTH(7-34) (FMHNLGKHLSSMERVEWLRKKLQDVHNF; Parathyroid hormone; UniProt P01268 38-65, looked up, fragment)
alpha-helical residues, previous estimates [10]: 9 residues
